Tested on: gram negative and gram positive bacilli
Experiment: Ozone treatment of precipitated calcium carbonate slurry; bioburden / log reduction of bacteria at sampling points
Assay type: cell-based
Experimental: A precipitated calcium carbonate slurry was prepared as shown FIG. 1. At the precipitation phase of the “Region of High Microbial Growth”, FIG. 1), the slurry was contaminated with gram negative and gram positive bacilli. The shiny was then continuously transferred from a precipitation tank (not shown) to a neutralization tank (100). Upon entry into the neutralization tank, the slurry was neutralized using carbon dioxide. A sample was collected from the neutralization tank to assess the initial bioburden of the slurry (3.6×10^6 CFU/g). After neutralization, 3.5 or 5 ppm (depending on trial) of ozone was injected into the slurry after circulation through the pump (120) (FIG. 3). […] The pH of the slurry in the neutralization tank ranged from 6.9 to 8.3 and the temperature ranged from 24° C. to 46° C.
The degree of log reduction in bacteria was sampled at sampling point 1 (160) (FIG. 3) at time zero and every five minutes up to 40 minutes. As depicted in Table 1, below, a 1-2 log reduction of bacteria was observed after 40 minutes under recirculation.
A precipitated calcium carbonate slurry was prepared according to Example 1. Five trials were conducted. The ozone was injected as described in Example 1 at a concentration ranging from 5 ppm to 25 ppm. Samples were taken after 40 minutes of recirculation, 40 minutes after ozone contact with the slurry in the neutralization tank (100) or immediately after the slurry passed through the static mixer (140) as shown in FIG. 3. […] This difference is log reduction may be attributable to the mixing of ozone-treated slurry in the neutralization tank (100) with the non-treated slurry from the precipitation tank (not shown).
The sampling variability was confirmed in further trials by assessing the ozone concentration before and after ozone treatment and assessing the bioburden from samples taken at sampling point 1 (160) or sampling point 2 (150). In one trial, an initial bioburden (without ozone) of a sample collected from the slurry tank was 3.6×10^6 CFU/g. After an ozone injection at a 5 ppm concentration, the amount of bioburden was reduced to 1.7×10^4 CFU/g after 40 minutes recirculation. […] However, when a sample in the third trial was collected and tested at sampling point 2 (150) a few seconds after ozone injection, the bioburden was less than 10 CFU/g. Accordingly, the data support that the disclosed process using ozone treatment is capable of reducing an initial bioburden by 5 log, i.e., 10^6 to 10^1 CFU/g.

In the case of O=[O+][O-] [ozone], the “log reduction of bacteria” value (Example 1 summary, 3.5 or 5 ppm ozone, sampling point 1, after 40 minutes under recirculation) is reported as 1-2 log, the “Log Reduction” value (Example 1 trial T1, sampling point 1, ozone 5.0 ppm, 12% PCC, pH 8.3, 24 °C, 40 minutes under recirculation) is reported as 2 log and the “Log Reduction” value (Example 1 trial T2, sampling point 1, ozone 5.0 ppm, 28% PCC, pH 7.2, 33 °C, 40 minutes under recirculation) is reported as 2 log. For the same compound, the “Log Reduction” value (Example 1 trial T3, sampling point 1, ozone 3.5 ppm, 39% PCC, pH 6.9, 33 °C, 40 minutes under recirculation) was 1 log, the “Log Reduction” value (Example 1 trial T4, sampling point 1, ozone 5.0 ppm, 39% PCC, pH 6.9, 46 °C, 40 minutes under recirculation) was 2 log and the “log reduction of bacteria” value (Example 2 summary, higher ozone injection (25 ppm)) was 4-5 log. For the same compound, the “log reduction of bacteria” value (Example 2 summary, lower concentrations of injected ozone) was 1-2 log, the “Log Reduction” value (Example 2 trial T1, sampling point 1, ozone 7.5 ppm, Recirculation, pH 8.3, 40 minutes) was 2 log and the “Log Reduction” value (Example 2 trial T2, sampling point 1, ozone 7.5 ppm, Recirculation, pH 7.2, +40 minutes) was “+2 log”. The “Log Reduction” value (Example 2 trial T3, sampling point 1, ozone 5 ppm, Within Tank, pH 6.9, 40 minutes) was 1 log, the “Log Reduction” value (Example 2 trial T4, sampling point 1, ozone 25 ppm, Recirculation, pH 6.9, 40 minutes) was 2 log and the “Log Reduction” value (Example 2 trial T5, sampling point 2, ozone 25 ppm, After initial flow through static mixer, pH 6.9, seconds) was 4-5 log. The bioburden (Example 3 another trial, initial bioburden 8.8×10^5 CFU/g, sampling point 2, seconds after ozone injection) was 7.0×10^1 CFU/g, the “reduction of initial bioburden” value (Example 3 conclusion, 10^6 to 10^1 CFU/g) was 5 log and the bioburden (Example 3 first trial, initial bioburden 3.6×10^6 CFU/g, ozone 5 ppm, after 40 minutes recirculation) was 1.7×10^4 CFU/g. The bioburden (Example 3 first trial, initial bioburden 3.6×10^6 CFU/g, ozone 5 ppm, sampling point 2) was 9.1×10^1 CFU/g, the bioburden (Example 3 third trial, sampling point 1, after ozone treatment and 40 minutes recirculation (mixed with untreated slurry)) was 8.8×10^5 CFU/g and the bioburden (Example 3 third trial, sampling point 2, a few seconds after ozone injection) was “less than 10 CFU/g”.

Reference: patent US10918753B2, “Use of ozone to control bioburden in precipitated calcium carbonate slurry (PCC)” (Colgate-Palmolive Company, priority 2014, dated 2021)
